For test [1], the system named is p16. In words: p16 protein in primary myotubes (Western Blotting). The format is cell-based. To be noted: 24 hours treatment.
The test system of test [2] is oxytocin receptor (OXTR). In words: OXTR expression in skeletal muscle by real-time qRT PCR. The format is in vivo, C57.B6 mice. The settings on record: old mice, s.c. daily 7 days, compared to control HBSS. As for the experimental part: Old C57.B6 male mice (23-24 mo) per were administered by subcutaneous injections with oxytocin (OXT), Alk5i, a mixture of OXT and Alk5i (OXT+Alk5i) or control in vivo for 7 days, daily. The expression levels of oxytocin receptor (OXTR) were assayed by real-time qRT PCR in skeletal muscle of these mice.
OT and/or A5i or control vehicle (HBSS) was injected subcutaneously to old male C57.B6 mice (23-24 month), daily for 7 days before sacrifice. 3 month C57.B6 male mice identically injected with HBSS were used as young controls
qPCR analysis: Tissue lysates from frozen muscle, liver, and brain embedded in OCT were prepared. 40 slices of 10 μm thick slices were collected and homogenized using QIAShredder (from QIAGEN). Total RNA was extracted with RNeasy Mini Kit (from QIAGEN) according to manufacturer's instructions. Reverse transcription was performed with Superscript III First-Stand Synthesis System (from Invitrogen) according to manufacturer's instructions. For real-time PCR amplification and quantification of gene of interest, 1 ug of total cDNA was used for the initial amplification using specific primers to each gene of interest; amplification was performed with a denaturation step at 95 C for 10 minutes, followed by 40 cycles of denaturation at 95 C for 15 seconds and primer extension at 60 C for 30 s. Real-time PCR was performed using iQ™ SYBR Green Supermix (from Bio-Rad) under CFX Connect Real-Time System (Bio-Rad). Reactions were run in triplicates. Housekeeping gene actin was used as an internal control to normalize the variability in expression levels, and results were analyzed using the 2-ΔΔCT method described (50).

Test [3] deals with neural stem cells (Sox-2+) in the subgranular zone of the Dentate Gyrus. In words: Hippocampal neurogenesis in old mice (proliferating Sox-2+ neural stem cells in SGZ). To be noted: old mice with CTX muscle injury, 7 days treatment, vs HBSS control. The format is in vivo. As for the experimental part: In addition to the cohort that underwent muscle injury, we also performed a study with old mice that were not injured. Young mice administered with control HBSS served as control. […] Hippocampal neurogenesis was assayed in the same mice that were studied for muscle repair above and additionally for mice that were not injured by cardiotoxin. The numbers of proliferating neural stem cells (Sox2+Ki67+) cells per DG of SGZ of hippocampus were quantified in serial brain cryosections. […] NS=non-statistically significant. […] Scale bar=100 microns. […] Data quantification: Muscle regeneration indices were calculated by counting percent de-novo myofibers with central nuclei to total nuclei in multiple images of 10-micron muscle sections for independently treated animals. Muscle fibrosis was quantified by measuring fibrotic areas on Image J. These fibrotic areas were normalized to the area of the image taken at 20× (˜14000 micron^2). Hippocampal neurogenesis (Sox2+/Ki67+, Sox2/BrdU+), p16+SGZ cell numbers and CD45+ cell numbers were quantified by counting the number of respective cells (from multiple 25-35-micron IF brain sections) and for neurogenesis and p16+ cells, extrapolating these numbers to the total thickness of the dentate gyrus. […]

Test [4] deals with old mice. In words: Four-limb hanging test. The test is classed as in vivo. To be noted: old mice without muscle injury; for strength (average hang time): 7-day treatment; for learning: percent improvement from first to second hang time: before and after 7-day treatment. As for the experimental part:
To assay functional performance, Alk5i alone (low dose), OT alone, Alk5i+OT and control HBSS were dosed to old mice without muscle injury, using young mice injected with HBSS as an additional control. The four-limb hanging test was given to all mice before and after the 7-day treatment. In order to better focus the test on the learning and memory aspects (rather than strength) we examined the percent improvement of each individual animal from the first to the second test session among all studied cohorts.
A four-limb hanging test was conducted with mice before and after treatment by injection of oxytocin (OT), Alk5 inhibitor (A5i) or both, or control HBSS (young and old). The maximal hang time from two trials was considered and the percent change for each animal before and after treatment is shown. A difference is observed between young and all old cohorts (p<0.04) except for the old+Alk5i+OT where there is no statistically significant difference with the young (p=0.5) (test, 1 tail, heteroscedastic).
Four limb hanging test: Muscle strength and endurance were determined by timing how long mice can hang upside down from a wire screen, as published (27). Briefly, each mouse was placed on a 1 cm. mesh, 1 mm wire screen, 30 cm over soft bedding, inverted and timed until the mouse fell. Each animal was given two to three trials with at least a 5-minute rest between trials. Hanging index is expressed as the maximum hang time times the weight of the mouse, with longer times or greater weight for a given time considered better performance.

The subject of test [5] is p21. To be noted: high dose, old mice; cited from earlier work.
Test [6] concerns p21. To be noted: pERK-dependent manner; cited from earlier work.
The subject of test [7] is muscle regeneration. The settings on record: short term subcutaneous injection; cited from earlier work.

Entries after “also recorded” stand apart in the source; their conditions may differ.

Consider “2-(3-(6-Methylpyridin-2-yl)-1H-pyrazol-4-yl)-1,5-naphthyridine [Alk5i]”, for which the “p16 protein levels in primary myotubes” value in test [1] is listed as “not either molecule alone”. In test [2], the “OXTR expression levels in skeletal muscle” value was “reduced the levels of the oxytocin receptor (OTR)” and the “OXTR levels diminished by” value is 2 fold. Further, the “hippocampal neurogenesis (Sox2+Ki67+ cells)” value in test [3] is recorded as “failed to enhance the neurogenesis of the old animals”. Besides, in test [4], the “strength (average hang time)” value is given as “young animals outperformed all old cohorts” and the “learning: percent improvement from first to second hang time” value was “did not show improvement”. The “p21 levels in brain” value in test [5] is listed as “attenuates p21 levels in brain of old mice”.
As to `CC[C@H](C)[C@@H]1NC(=O)[C@H](Cc2ccc(O)cc2)NC(=O)[C@@H](N)CSSC[C@@H](C(=O)N2CCC[C@H]2C(=O)N[C@@H](CC(C)C)C(=O)NCC(N)=O)NC(=O)[C@H](CC(N)=O)NC(=O)[C@H](CCC(N)=O)NC1=O` [OT, Oxytocin], in test [1], the “p16 protein levels in primary myotubes” value is “not either molecule alone”. Moreover, in test [2] (listed as OXT), the “OXTR expression levels in skeletal muscle” value was “had no effect; also recorded: did not have an effect on OXTR”. The “CDKI p21” value in test [6] is listed as “down-modulate CDKI p21”. Also, the “hippocampal neurogenesis (Sox2+Ki67+ cells)” value in test [3] is “failed to enhance the neurogenesis of the old animals”. In addition, in test [4], the “strength (average hang time)” value was “young animals outperformed all old cohorts” and the “learning: percent improvement from first to second hang time” value was “did not show improvement”. Besides, the “muscle regeneration in old mice” value in test [7] was “able to restore muscle regeneration in old mice”.

The values above are taken from patent US20200155638A1, “Enhancing Oxytocin Receptor Expression Using an Oxytocin Receptor Agonist and an Alk5 Antagonist” (The Regents of the University of California, priority 2017, published 2020).
